Test results: article PMC5118987 (Antimicrobial Agents and Chemotherapy, 2016)

What was measured:
HIV-1 clonal variants = assay: PhenoSense integrase assay, clonal variants from EVG/COBI/FTC/TDF virologic failures; type: cell-based
Source text: Clonal Analysis of HIV-1 from Patients. Plasma from 16 patients treated in Studies GS-US-236-0102 and GS-US-236-0103 with confirmed virologic failure and resistance development in the HIV-1 integrase gene were sent to Monogram Biosciences (South San Francisco, CA) for clonal analysis. The HIV-1 RNA was isolated and the cDNA was synthesized using Monogram proprietary primers. Using proprietary primers, PCR amplification of the entire protease, reverse transcriptase, and integrase coding regions of the pol gene were performed. PCR products were inserted into T/A cloning vectors.
Approximately 20 clones were chosen per patient sample for sequencing using proprietary primers. A subset of clones was chosen for phenotypic analysis based on the presence of INSTI resistance mutations. Resistance test vectors containing the patient-derived integrase coding region from selected clones were constructed using standard Monogram Biosciences protocols. […]
values) in these clones were obtained through a contract study by Monogram Biosciences using the PhenoSense integrase assay. The fold-change from the NL4-3 wild-type reference vector values was determined.

[1] = system: HIV-1 patient-derived isolates with INSTI resistance mutations; assay: PhenoSense IN assay, 47 patient-derived isolates; type: cell-based
Description: Forty-seven resistance test vectors containing patient-derived IN coding regions were constructed using standard Monogram Biosciences protocols. […] The fold change from the NL4-3 wild-type reference vector values was determined. Statistical significance was determined using the Student two-tailed t test.

HCV 1b Replicon = assay: Anti-HCV activity, HCV 1b replicon; settings: Hepatitis C virus, Huh-7
[2] = system: organic cation transporter 2 (OCT2); settings: read-out: IC50 inhibition of organic cation transporter 2 (OCT2); cited from earlier work
[3] = via inhibition of OCT2 in proximal tubule; cited from earlier work
HIV-1 IIIb [4] = settings: for PAEC95 (protein binding-adjusted EC95): EC95 in MT-4 with human serum shift; for EC95: MT-4 cells, calculated using Hill slope
Description: Each compound series was prepared several times independently in quadruplicate to capture the variations in Hill slope associated with preparation of compound serial dilutions. The assay was performed in a 384-well format. MT-4 cells were infected in bulk at the same MOI as that described above, and the plates were developed with CellTiter-Glo reagent 5 days postinfection.

HIV-1 BaL [5] = assay: Antiviral assay in monocyte-derived macrophages (p24 ELISA); settings: Human immunodeficiency virus 1, BAL, Macrophage
Source text: (§1) Freshly isolated human peripheral blood mononuclear cells (PBMCs) were obtained from healthy volunteers (supplied by AllCells, Inc., Alameda, CA). Blood donors were negative for HIV-1, hepatitis B, and hepatitis C viral infections. CD4^+ T lymphocytes were isolated by negative selection using a magnetically labeled antibody cocktail ([sequence] Technologies Inc., Vancouver, Canada) and cultured in RPMI cell culture media (Life Technologies, Grand Island, NY) supplemented with 10% FBS. CD4^+ T cells were activated for 48 h at 37°C by addition of 1 μg/ml phytohemagglutinin (PHA; Sigma, St. Louis, MO) and 5 ng/ml interleukin-2 (IL-2; Roche Diagnostics, Indianapolis, IN).
(§2) A 3-fold serial dilution of test compounds in RPMI medium was added to triplicate wells and incubated at 37°C for 5 days. Human monocytes were seeded on 96-well plates at a density of 3 × 10^5 cells per well, differentiated into adherent macrophages, and then infected with HIV-1 BaL virus in 50 μl RPMI for 3 h at 37°C. […] The supernatants derived from the CD4^+ T-cell and macrophage cultures were harvested 6 and 12 days postinfection, respectively, and the amount of HIV present was quantified by p24 enzyme-linked immunosorbent assay (ELISA) (PerkinElmer, Waltham, MA).

[6] = Cytotoxicity in AD38 cells; settings: human
Influenza B/LEE/40 = assay: microbe, parasite or virus in culture; type: cell-based; settings: NHBE
HIV-1 BaL [7] = assay: Antiviral assay in primary CD4+ T lymphocytes (p24 ELISA); settings: Human immunodeficiency virus 1, BAL
Source text: as §1, §2

HIV-1 IIIb [8] = assay: Antiviral assay in MT-4 cells; type: cell-based; settings: Human immunodeficiency virus 1, MT4, 120 h, 5 days
Description: For the antiviral assay utilizing MT-2 and MT-4 cells, 50 μl of a 2× test concentration of 5-fold serially diluted compound in culture medium with 10% FBS was added to each well of a 96-well plate (9 concentrations) in triplicate. MT-2 and MT-4 cells were infected with HIV-1 IIIb at a multiplicity of infection (MOI) of 0.01 for 3 h. Fifty microliters of infected cell suspension in culture medium with 10% FBS (∼1.5 × 10^4 cells) then was added to each well containing 50 μl of diluted compound. The plates were then incubated at 37°C for 5 days. After 5 days of incubation, 100 μl of CellTiter-Glo reagent (Promega Biosciences, Inc., Madison, WI) was added to each well containing MT-2 or MT-4 cells. Cell lysis was carried out by incubation at room temperature for 10 min and chemiluminescence was read. For compound cytotoxicity assessment, the protocol was identical except that uninfected cells were used and compounds were serially diluted 3-fold.

HCV 2a Replicon = assay: Anti-HCV activity, HCV 2a replicon; settings: Hepatitis C virus, Huh-7
[9] = target: T1, HIV-1 IN 3′-processing activity (Human immunodeficiency virus type 1 group M subtype B, UniProt P04585); assay: IN 3′-processing assay (HTRF); type: biochemical; settings: purified recombinant HIV-1 IN; mean ± SD, 5 experiments
T1 construct: Recombinant IN containing an N-terminal 6His tag was expressed in BL21(DE3) pLysS bacteria; 6His (N); made in house; host or cells: E. coli BL21(DE3) pLysS
Description: The strand transfer activity of IN was measured using an assay based on homogeneous time-resolved fluorescence resonance energy transfer (HTRF) ([34]) and has been previously described in detail ([35]). An HTRF-based 3′-processing assay was performed essentially as described for the IN strand transfer assay using a specially designed nonprocessed donor DNA in the absence of target DNA ([35]).

Cc1nnc(C(=O)NC(C)(C)c2nc(C(=O)NCc3ccc(F)cc3)c(O)c(=O)n2C)o1 [RAL, raltegravir]
Susceptibility (Fold-change vs. WT) (HIV-1 clonal variants; clone 6041-11: E92Q): 3.67 fold-change | Susceptibility (Fold-change vs. WT) (HIV-1 clonal variants; clone 6101-12: Q148R): 32 fold-change | Susceptibility (Fold-change vs. WT) (HIV-1 clonal variants; clone 6101-14: N155H): 6.56 fold-change | Susceptibility (Fold-change vs. WT) (HIV-1 clonal variants; clone 6101-15: E92Q): 4.41 fold-change | Susceptibility (Fold-change vs. WT) (HIV-1 clonal variants; clone 6322-1: N155H, G163R): 15 fold-change | Susceptibility (Fold-change vs. WT) (HIV-1 clonal variants; clone 6322-11: N155H): 11 fold-change | Susceptibility (Fold-change vs. WT) (HIV-1 clonal variants; clone 6503-10: E92Q): 3.88 fold-change | Susceptibility (Fold-change vs. WT) (HIV-1 clonal variants; clone 6545-7: N155H): 15 fold-change | Susceptibility (Fold-change vs. WT) (HIV-1 clonal variants; clone 6648-7: E92Q): 4.20 fold-change | Susceptibility (Fold-change vs. WT) (HIV-1 clonal variants; clone 6648-10: E92Q): 4.20 fold-change | Susceptibility (Fold-change vs. WT) (HIV-1 clonal variants; clone 6648-11: E92Q): 3.97 fold-change | Susceptibility (Fold-change vs. WT) (HIV-1 clonal variants; clone 6667-1: E92Q): 5.09 fold-change | Susceptibility (Fold-change vs. WT) (HIV-1 clonal variants; clone 7299-11: Q148R, G140C): 24 fold-change | Susceptibility (Fold-change vs. WT) (HIV-1 clonal variants; clone 7332-10: None): 0.79 fold-change | Susceptibility (Fold-change vs. WT) (HIV-1 clonal variants; clone 7425-11: E92Q): 1.95 fold-change | Susceptibility (Fold-change vs. WT) (HIV-1 clonal variants; clone 7476-5: T66I, E157Q): 1.63 fold-change | Susceptibility (Fold-change vs. WT) (HIV-1 clonal variants; clone 7476-9: T66I, T97A, E157Q): 2.45 fold-change | Susceptibility (Fold-change vs. WT) (HIV-1 clonal variants; clone 7562-12: N155H): 13 fold-change | % of Isolates (Fold-Change vs. WT) (2.5 to <5) ([1]; 47 patient-derived isolates): 4% | % of Isolates (Fold-Change vs. WT) (5 to <10) ([1]; 47 patient-derived isolates): 4% | % of Isolates (Fold-Change vs. WT) (≤2.5) ([1]; 47 patient-derived isolates): 2% | % of Isolates (Fold-Change vs. WT) (≥10) ([1]; 47 patient-derived isolates): 89% | Fold-Change vs. WT Mean ([1]; 47 patient-derived isolates): > 100 fold change | Fold-Change vs. WT Median ([1]; 47 patient-derived isolates): > 143 fold change | Susceptibility (Fold-change vs. WT) ([1]; isolate entry 1: L74M,T97A): 8.48 fold-change | Susceptibility (Fold-change vs. WT) ([1]; isolate entry 2: L68V,Y143C): 4.06 fold-change | Susceptibility (Fold-change vs. WT) ([1]; isolate entry 3: L68L/V,L74M,Y143R): > 143 fold-change | Susceptibility (Fold-change vs. WT) ([1]; isolate entry 4: T97A): 1.78 fold-change | Susceptibility (Fold-change vs. WT) ([1]; isolate entry 5: T97A,F121Y): 112 fold-change | Susceptibility (Fold-change vs. WT) ([1]; isolate entry 6: T97A,Y143R): > 143 fold-change | Susceptibility (Fold-change vs. WT) ([1]; isolate entry 7: F121Y): 12 fold-change | Susceptibility (Fold-change vs. WT) ([1]; isolate entry 8: L74M,N155H): 89 fold-change | Susceptibility (Fold-change vs. WT) ([1]; isolate entry 9: T97A,N155H): 53 fold-change | Susceptibility (Fold-change vs. WT) ([1]; isolate entry 10: T97A,Y143C): > 143 fold-change | Susceptibility (Fold-change vs. WT) ([1]; isolate entry 11: E92Q,E157E/Q): 4.8 fold-change | Susceptibility (Fold-change vs. WT) ([1]; isolate entry 12: E92Q): 18 fold-change | Susceptibility (Fold-change vs. WT) ([1]; isolate entry 13: N155H,E157E/Q): 19 fold-change | Susceptibility (Fold-change vs. WT) ([1]; isolate entry 14: E92Q): 6.7 fold-change | Susceptibility (Fold-change vs. WT) ([1]; isolate entry 15: Y143R): 22 fold-change | Susceptibility (Fold-change vs. WT) ([1]; isolate entry 16: Y143R): 16 fold-change | Susceptibility (Fold-change vs. WT) ([1]; isolate entry 17: N155H): 107 fold-change | Susceptibility (Fold-change vs. WT) ([1]; isolate entry 18: Y143C): 14 fold-change | Susceptibility (Fold-change vs. WT) ([1]; isolate entry 19: T97A,Y143C): > 143 fold-change | Susceptibility (Fold-change vs. WT) ([1]; isolate entry 20: Q148R,E138A): 43 fold-change | Susceptibility (Fold-change vs. WT) ([1]; isolate entry 21: N155H,G163R): 15 fold-change | Susceptibility (Fold-change vs. WT) ([1]; isolate entry 22: E92Q,N155H): > 143 fold-change | Susceptibility (Fold-change vs. WT) ([1]; isolate entry 23: E138K,Q148R): 54 fold-change | Susceptibility (Fold-change vs. WT) ([1]; isolate entry 24: G140S,Q148H): > 143 fold-change | Susceptibility (Fold-change vs. WT) ([1]; isolate entry 25: E92Q,N155H,G163R): > 143 fold-change | Susceptibility (Fold-change vs. WT) ([1]; isolate entry 26: G140A,Q148R): 88 fold-change | Susceptibility (Fold-change vs. WT) ([1]; isolate entry 27: G140S,Q148H): > 143 fold-change | Susceptibility (Fold-change vs. WT) ([1]; isolate entry 28: G140S,Q148H): > 143 fold-change | Susceptibility (Fold-change vs. WT) ([1]; isolate entry 29: G140S, Q148H): > 143 fold-change | Susceptibility (Fold-change vs. WT) ([1]; isolate entry 30: E138K,G140S,Q148H): > 143 fold-change | Susceptibility (Fold-change vs. WT) ([1]; isolate entry 31: G140S,Q148H): > 143 fold-change | Susceptibility (Fold-change vs. WT) ([1]; isolate entry 32: G140S,Q148H, G163K): > 143 fold-change | Susceptibility (Fold-change vs. WT) ([1]; isolate entry 33: G140S,Q148H): > 143 fold-change | Susceptibility (Fold-change vs. WT) ([1]; isolate entry 34: E138K,G140S,Q148H): > 143 fold-change | Susceptibility (Fold-change vs. WT) ([1]; isolate entry 35: E138K G140S Q148H): > 114 fold-change | Susceptibility (Fold-change vs. WT) ([1]; isolate entry 36: G140S,Q148H): > 143 fold-change | Susceptibility (Fold-change vs. WT) ([1]; isolate entry 37: G140S,Q148R): > 143 fold-change | Susceptibility (Fold-change vs. WT) ([1]; isolate entry 38: G140S,Q148H): > 143 fold-change | Susceptibility (Fold-change vs. WT) ([1]; isolate entry 39: G140S,Q148H): > 143 fold-change | Susceptibility (Fold-change vs. WT) ([1]; isolate entry 40: T97A,G140S,Q148H): > 143 fold-change | Susceptibility (Fold-change vs. WT) ([1]; isolate entry 41: E138K,G140C,Q148R): > 143 fold-change | Susceptibility (Fold-change vs. WT) ([1]; isolate entry 42: L74L/M,G140A,Q148R): > 143 fold-change | Susceptibility (Fold-change vs. WT) ([1]; isolate entry 43: G140S,Q148R): > 143 fold-change | Susceptibility (Fold-change vs. WT) ([1]; isolate entry 44: G140S,Q148H,E138A): > 143 fold-change | Susceptibility (Fold-change vs. WT) ([1]; isolate entry 45: T97A,G140S,Q148H): > 143 fold-change | Susceptibility (Fold-change vs. WT) ([1]; isolate entry 46: L74M,G140C,Q148R): > 143 fold-change | Susceptibility (Fold-change vs. WT) ([1]; isolate entry 47: E138K,G140A,Q148K): > 143 fold-change

C[C@@H]1CCO[C@H]2Cn3cc(C(=O)NCc4ccc(F)cc4F)c(=O)c(O)c3C(=O)N12 [DTG, Dolutegravir]
EC50 (HCV 1b Replicon): > 44000 nM | IC50 [2]: 1930 nM | increase of human serum creatinine levels [3]: about 10% | PAEC95 (protein binding-adjusted EC95) (HIV-1 IIIb [4]): 204 nM | EC95 (HIV-1 IIIb [4]): 7.4 nM | EC50 (HIV-1 BaL [5]): 3.1 ± 2.5 nM | CC50 at 5 days [6]: > 50000 nM | EC50 (Influenza B/LEE/40): 15100 nM | EC50 (HIV-1 BaL [7]): 1 ± 0.3 nM | EC50 (HIV-1 IIIb [8]): 1.5 ± 0.3 nM | EC50 (HCV 2a Replicon): > 44000 nM

O=C(NCc1c(F)cc(F)cc1F)c1cn2c(c(O)c1=O)C(=O)N1[C@H]3CC[C@H](C3)O[C@@H]1C2 [BIC, Bictegravir]
EC50 (HCV 1b Replicon): > 44000 nM | IC50 [9]: 241 ± 51 nM | EC50 (HIV-1 clonal variants; Human immunodeficiency virus 1, NL43, read-out: mean EC50 of wild-type virus): 1.55 nM | PAEC95 (protein binding-adjusted EC95) (HIV-1 IIIb [4]): 361 nM | EC95 (HIV-1 IIIb [4]): 8.3 nM | EC50 (HIV-1 BaL [5]): 6.6 ± 4.1 nM | CC50 at 5 days [6]: > 50000 nM | EC50 (Influenza B/LEE/40): 37200 nM | EC50 (HIV-1 BaL [7]): 1.5 ± 0.3 nM | EC50 (HIV-1 IIIb [8]): 2.4 ± 0.4 nM | EC50 (HCV 2a Replicon): > 44000 nM
